In US12296030B2, “Conjugates and their use as imaging agents” (priority 2019, dated 2025):

Tests used:
angiogenesis = settings: in vivo; cited from earlier work
[1] = system: quiescent endothelial cells; settings: in vitro; cited from earlier work
proliferating cells = settings: cited from earlier work
nodal metastases = experiment: FDG-PET in patient 3; type: in vivo, human; settings: patient 3, 60 min after 256 MBq

With `N[C@@H](CCC(=O)N[C@@H](CSCC(=O)Nc1ccc([As](O)O)cc1)C(=O)NCC(=O)O)C(=O)O` [GSAO, 4-(N—(S-glutathionylacetyl)amino)phenylarsenous acid] as the molecule, how does the effect on angiogenesis (angiogenesis) read?
The effect on angiogenesis was “inhibits angiogenesis in vivo”.

What about the “toxicity to quiescent endothelial cells” value [1] of the same molecule?
Its value is “nontoxic”.

And the “toxicity to proliferating cells” value (proliferating cells)?
The value was “toxic”.

With `O=C[C@H](F)[C@@H](O)[C@H](O)[C@H](O)CO` [FDG, 2-fluoro-2-deoxyglucose] as the molecule, how does the FDG-PET finding (nodal metastases) read?
The FDG-PET finding was “two intensely metabolically active nodal metastases”.
